Where two headings read alike, the source gives them in different places.
Key:
[1] = system: Leishmania tarentolae promastigotes (LtP); test: Immediate mitochondrial uncoupling in LtP, OxoPlates with oligomycin; format: cell-based; conditions: LtP + 5 μM Oligo, OxoPlates
Description: U‐shaped 96‐well OxoPlates (OP96U PreSens, Germany) with integrated fluorescence oxygen sensors were used for parallel LtP experiments. Oxygen concentrations were measured using a PerkinElmer Enspire fluorescence plate reader using excitation wavelength 540 nm and two emission wavelengths (reference dye 590 nm, IRef, and O2‐sensing dye 650 nm, IInd). The oxygen concentration (μM O2) was calculated according to manufacturer's instructions as described previously (Monzote et al., 2016). Measurements with LtP were performed in air‐saturated BHI medium. […] Immediately before the measurement, 150 μl of well‐aerated cell suspensions (13 × 10^7 LtP per ml) was added to the respective wells. Finally, on the top of each well, 50 μl of paraffin oil was layered. Two minutes after mixing, the fluorescence measurements at 27 °C were started, and eight measurements at 5‐min intervals were performed. From the linear part of the O2 decay, the slopes were calculated and corrected for the medium drift for further statistic evaluation. All measurements were performed at least in triplicate. For bioenergetic characterization, the ATP synthase inhibitor Oligo (5 μM) and as positive control CCCP (0.7–5 μM) were used. Respiratory control ratio (RCR) was calculated from respiration rate in the presence of Oligo and compounds/uncoupler divided by the rate in the presence of Oligo.

[2] = system: Leishmania tarentolae promastigotes (LtP); test: Oxygen consumption of LtP, Clark-type electrode (immediate effect); format: cell-based; conditions: 10-200 μM tested
Description: Direct inhibitors of mitochondrial ETC instantaneously influence mitochondrial oxygen consumption. To assay the effect of EO compounds on oxygen consumption of LtP, a Clark‐type oxygen electrode (Hansatech, Germany) and software MCREC were used. LtP at approximately 10^8 cells/ml in YEM (25 °C) were added and treated with increasing concentrations of EO compounds between 10 and 200 μM and for EO 5.6–89.6 μg/ml. Each concentration was assayed in quadruplicates, and the results were expressed as percentage of oxygen consumption in comparison with the untreated control LtP. The highest concentration of the vehicle (1% DMSO) caused only 2% inhibition. The uncoupling effect in short‐term and long‐term (0, 6, and 24 hr) incubations with Asc (200 μM) was studied in Oligo‐inhibited (5 μM) and uncoupler‐stimulated (0.5 μM CCCP) LtP in Schneider's medium supplemented with 6 μM hemin. Four replicates were performed for each concentration.

[3] = biological target: NADH:ubiquinone oxidoreductase (complex I), BH‐SMP (Bos taurus, UniProt P03887+P17694+P42026); format: biochemical, bovine; conditions: for IC50: read-out: IC50 Complex I BH‐SMP
Description: (§1) NADH:ubiquinone oxidoreductase (complex I) and succinate:ubiquinone oxidoreductase (complex II) activities were determined in 96 well‐plates using DCPIP as the electron acceptor. In each well, 200 μl of premix containing buffer (250 mM sucrose, 20 mM triethanolamine, and 1 mM EDTA, pH 7.4), DCPIP (60 μM), BSA (3.5 mg/ml for complex I and 1 mg/ml for complex II), idebenone (50 μM), and LtP‐Mit (complex I 0.17 μg/ml protein and complex II: 51 μg/ml protein) or BH‐SMP (complexes I and II: 8 μg/ml protein) were added. In addition, in the first wells, 97 μl of premix and 3 μl of EO compounds were added. Then six serial 1:3 dilutions were carried out transferring 100 μl in each step. The reaction was started by adding 50 μl of start‐mix per well, giving final concentrations of KCN (1 mM), for complex I:NADH (300 μM) or complex II:succinate (4 mM). After start of the reaction, images of the plates were recorded with a Canon EOS 300D camera (PLReader software, red–green channel) each 10 min for LtP‐Mit and 3 min for BH‐SMP (20 absorbance measurements). For each EO compound, percentage of inhibition was obtained with respect to controls (set to 100%) treated with maximum volume of vehicle (DMSO) introduced by test compound stocks.

[4] = biological target: T1, ubiquinol:cytochrome c oxidoreductase (complex III), BH‐SMP (Bos taurus, UniProt P00125+P00157+P13272); test: dUQH2:cyt c3+ oxidoreductase (complex III) activity in BH‐SMP; format: biochemical, bovine
T1 construct: from tissue; host or cells: bovine heart submitochondrial particles (BH-SMP)
Description: To measure the ubiquinol:cyt c ^3+ oxidoreductase (complex III) activity, the reduction of 100 μM cyt c ^3+ at 550 nm using 540 nm as reference was monitored in the presence of the artificial substrate decylubiquinol (dUQH2, 75 μM), which was prepared from dUQ by reduction (Müllebner et al., 2010). The dUQH2:cyt c ^3+ oxidoreductase activities of 40 μg protein/ml of LtP‐Mit or 3.2 μg protein/ml of BH‐SMP were measured in 1 ml of buffer containing 250 mM sucrose, 50 mM KH2PO4, 0.2 mM EDTA (pH 7.2), 2 mM KCN, and 4 mM NaN3. Respective EO compounds were added 50 s after starting the time scan, and the reaction was started after 100 s with dUQH2 and was monitored for additional 150 s. The activity of noninhibited dUQH2:cyt c ^3+ oxidoreductase activity was measured in the presence of the vehicle for the respective inhibitor (DMSO). All inhibitor concentrations were tested in triplicate. The reduction rates for cyt c ^3+ were calculated from the time trace of the absorption difference at 550 − 540 nm (ε550–540 nm = 19 mmol^−1 L cm^−1). Reduction rates in the presence of DMSO (maximum amount that was introduced by test compound stocks) were set to 100%, and the remaining activities in the presence of EO compounds were expressed in %. Three replicates were measured for each concentration.

[5] = biological target: succinate:ubiquinone oxidoreductase (complex II), LtP‐Mit (Leishmania tarentolae, UniProt A0A640KIH4+A0A640KIH8); test: Succinate:ubiquinone oxidoreductase (complex II) activity in LtP‐Mit, DCPIP; format: biochemical; conditions: for IC50: read-out: IC50 Complex II LtP‐Mit
Description: as §1

[6] = biological target: NADH:ubiquinone oxidoreductase (complex I), LtP‐Mit (Leishmania tarentolae, UniProt A0A640KJ43+P15576+Q34939); test: NADH:ubiquinone oxidoreductase (complex I) activity in LtP‐Mit, DCPIP; format: biochemical; conditions: for IC50: read-out: IC50 Complex I LtP‐Mit
Description: as §1

[7] = read-out: IC50 Complex III BH‐SMP

Sequence of NADH:ubiquinone oxidoreductase (complex I), LtP‐Mit (Q7M3U1 entry or part of it): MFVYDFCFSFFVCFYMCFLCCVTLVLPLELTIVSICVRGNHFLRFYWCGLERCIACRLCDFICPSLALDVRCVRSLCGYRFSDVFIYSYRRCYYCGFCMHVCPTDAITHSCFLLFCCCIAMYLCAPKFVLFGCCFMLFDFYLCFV
Sequence of NADH:ubiquinone oxidoreductase (complex I), LtP‐Mit (P15576 whole entry): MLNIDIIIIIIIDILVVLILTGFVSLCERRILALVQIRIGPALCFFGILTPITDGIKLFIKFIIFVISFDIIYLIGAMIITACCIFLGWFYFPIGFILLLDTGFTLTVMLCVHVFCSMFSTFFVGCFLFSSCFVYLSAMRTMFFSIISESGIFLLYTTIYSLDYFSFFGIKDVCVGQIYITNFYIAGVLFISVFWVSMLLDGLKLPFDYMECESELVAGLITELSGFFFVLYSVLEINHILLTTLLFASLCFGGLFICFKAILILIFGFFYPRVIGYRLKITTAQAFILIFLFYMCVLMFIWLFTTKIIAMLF
Sequence of NADH:ubiquinone oxidoreductase (complex I), LtP‐Mit (A0A640K8W3 entry or part of it, further chain): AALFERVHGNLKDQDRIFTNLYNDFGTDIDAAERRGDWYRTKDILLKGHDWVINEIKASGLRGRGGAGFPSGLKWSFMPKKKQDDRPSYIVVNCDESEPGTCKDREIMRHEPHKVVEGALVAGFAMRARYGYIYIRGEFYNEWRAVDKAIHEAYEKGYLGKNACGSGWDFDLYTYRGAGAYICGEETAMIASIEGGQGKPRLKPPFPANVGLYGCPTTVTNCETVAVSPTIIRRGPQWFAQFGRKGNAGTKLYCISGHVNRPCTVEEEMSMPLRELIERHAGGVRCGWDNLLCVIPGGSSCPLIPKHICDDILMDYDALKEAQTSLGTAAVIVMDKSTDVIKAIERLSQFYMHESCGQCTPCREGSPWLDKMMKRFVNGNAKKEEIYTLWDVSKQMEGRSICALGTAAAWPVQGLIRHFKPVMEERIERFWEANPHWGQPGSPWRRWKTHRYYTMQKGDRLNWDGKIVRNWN
Sequence of NADH:ubiquinone oxidoreductase (complex I), LtP‐Mit (P15583 whole entry, further chain): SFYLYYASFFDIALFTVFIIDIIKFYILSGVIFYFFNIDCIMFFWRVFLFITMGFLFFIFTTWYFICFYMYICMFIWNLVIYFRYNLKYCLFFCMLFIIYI
Sequence of NADH:ubiquinone oxidoreductase (complex I), LtP‐Mit (Q34939 entry or part of it): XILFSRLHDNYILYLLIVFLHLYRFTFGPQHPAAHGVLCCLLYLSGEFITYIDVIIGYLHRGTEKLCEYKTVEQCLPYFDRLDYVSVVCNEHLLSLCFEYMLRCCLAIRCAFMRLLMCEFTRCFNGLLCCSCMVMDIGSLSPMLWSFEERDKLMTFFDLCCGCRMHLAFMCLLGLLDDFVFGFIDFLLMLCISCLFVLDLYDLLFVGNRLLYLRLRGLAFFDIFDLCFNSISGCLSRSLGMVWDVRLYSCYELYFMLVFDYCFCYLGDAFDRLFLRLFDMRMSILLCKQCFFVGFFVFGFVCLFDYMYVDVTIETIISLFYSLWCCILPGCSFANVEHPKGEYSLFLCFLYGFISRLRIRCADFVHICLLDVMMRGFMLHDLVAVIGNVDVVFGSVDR
Sequence of NADH:ubiquinone oxidoreductase (complex I), LtP‐Mit (A0A640KJ43 entry or part of it): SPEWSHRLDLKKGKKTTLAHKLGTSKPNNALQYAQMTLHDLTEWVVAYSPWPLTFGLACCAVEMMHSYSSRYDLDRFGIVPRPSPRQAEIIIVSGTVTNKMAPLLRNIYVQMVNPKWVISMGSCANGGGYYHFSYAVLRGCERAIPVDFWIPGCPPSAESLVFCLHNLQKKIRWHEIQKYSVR
Sequence of succinate:ubiquinone oxidoreductase (complex II), LtP‐Mit (A0A640KIH4 entry or part of it): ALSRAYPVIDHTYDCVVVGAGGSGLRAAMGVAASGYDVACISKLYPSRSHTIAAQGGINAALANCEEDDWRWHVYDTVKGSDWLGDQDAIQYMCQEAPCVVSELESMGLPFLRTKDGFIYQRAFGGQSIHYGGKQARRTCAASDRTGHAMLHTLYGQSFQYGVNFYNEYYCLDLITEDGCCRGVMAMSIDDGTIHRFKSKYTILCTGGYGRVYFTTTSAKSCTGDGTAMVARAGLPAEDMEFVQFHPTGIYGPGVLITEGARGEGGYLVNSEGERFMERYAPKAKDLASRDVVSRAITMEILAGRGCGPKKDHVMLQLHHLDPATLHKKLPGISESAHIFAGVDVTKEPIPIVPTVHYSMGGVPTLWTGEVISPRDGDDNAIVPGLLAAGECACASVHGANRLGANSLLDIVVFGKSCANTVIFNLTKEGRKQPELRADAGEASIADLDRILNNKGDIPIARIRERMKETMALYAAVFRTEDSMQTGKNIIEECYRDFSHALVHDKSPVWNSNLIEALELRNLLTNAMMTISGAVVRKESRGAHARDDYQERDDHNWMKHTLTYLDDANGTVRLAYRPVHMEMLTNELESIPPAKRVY
Sequence of succinate:ubiquinone oxidoreductase (complex II), LtP‐Mit (A0A640KIH8 entry or part of it): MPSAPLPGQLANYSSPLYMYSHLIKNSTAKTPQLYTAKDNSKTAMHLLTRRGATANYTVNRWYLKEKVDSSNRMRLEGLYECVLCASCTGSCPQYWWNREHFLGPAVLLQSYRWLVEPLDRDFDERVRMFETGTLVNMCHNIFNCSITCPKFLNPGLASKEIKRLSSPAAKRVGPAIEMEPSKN

SMILES	Immediate uncoupling effect (stimulation of Oligo-inhibited oxygen consumption) [1]	Inhibition of LtP oxygen consumption (in words) [2]	% of inhibition at highest concentration tested, Complex I BH‐SMP [3]	IC50 [3]	IC50 [4]	% of inhibition at highest concentration tested, Complex III BH‐SMP [4]	% of inhibition at highest concentration tested, Complex II LtP‐Mit [5]	IC50 [5]	% of inhibition at highest concentration tested, Complex I LtP‐Mit [6]	IC50 [6]	IC50 [4, 7]	Oxygen consumption on top of the inhibition by Oligo ([1]; highest concentration 200 μM)	IC50 ([2]; Leishmania tarentolae, read-out: IC50, inhibition of LtP oxygen consumption)
CC(C)C12C=CC(C)(CC1)OO2 (stereo not drawn) [Asc, ascaridole]	Neither Car nor Asc (Figure 6a,b) showed an uncoupling effect	failed to strongly inhibit oxygen consumption	5.1%	> 100 µM	> 100 µM	17.7%	17.6%	> 100 µM	1.1%	> 100 µM	–	–	–
Cc1ccc(C(C)C)cc1O [Car, carvacrol]	Neither Car nor Asc (Figure 6a,b) showed an uncoupling effect	failed to strongly inhibit oxygen consumption	13.3%	> 100 µM	–	22.8%	8.8%	> 100 µM	16.4%	> 100 µM	> 100 µM	–	–
C=C1CC[C@H]2O[C@]2(C)CC[C@@H]2[C@@H]1CC2(C)C [Caryo, caryophyllene oxide]	–	strongly inhibited LtP oxygen consumption	39.7%	> 100 µM	–	–	12.3%	> 100 µM	7.2%	> 100 µM	> 100 µM	totally inhibited the oxygen consumption	98 ± 2 µM

Source: publication PMC6208284 (Phytotherapy Research, 2018)
